# pIC50: −log10 of the molar value. Where two headings read alike, the source gives them in different places.
# Tests used:
# calf-thymus (ct)-DNA = settings: literature values; cited from earlier work
# [1] = test system: cisplatin resistant CH1 cell line (CH1cis^R); settings: 96 h exposure, value reported in WO97/27202; cited from earlier work
# cell line SKOV3 [2] = settings: reported in WO 97/27202; cited from earlier work
# CH1 cell line = experiment: in vitro cytotoxicity, sulforhodamine B growth inhibition assay; type: cell-based, human; settings: 96 h exposure
# Method: (§1) The IC50 values of the bis-2,2':6',2"-terpyridine Pt(II) complexes (1, Z=trans-CH=CH-, Y=H), (1, Z=trans-CH=CH-, Y=Cl) and (1, Z=trans-CH=CH-, Y=4-Br.C6H4), were reported in PCT/GB97/00218 (WO97/27202) and referred to as A14, I14 and Q14 respectively. They were evaluated for in vitro cytotoxicity against five human ovarian carcinoma cell lines which included two selected for resistance to cisplatin (Ch1cis^R and A2780cis^R) and one for resistance to doxorubicin (Ch1dox^R). The compounds were exposed to cells for 96 h and growth inhibition assessed using the sulforhodamine B protein staining assay.
# cell line SKOV3 [3] = experiment: as above; type: cell-based, human
# Method: as §1
# [4] = test system: cisplatin resistant CH1 cell line (CH1cis^R); experiment: as above; type: cell-based, human; settings: 96 h exposure
# Method: as §1
# [5] = test system: doxirubicin resistant CH1 cell line; type: cell-based, human; settings: doxirubicin resistant CH1 cell line versus CH1
# Method: as §1
# [6] = maximum tolerated dose, single intraperitoneal injection; type: in vivo; settings: for loss of body weight: 25, 50 and 100 mg/kg i.p., body weight 2 weeks post-dosing; for deaths: single intraperitoneal injection at 25, 50 and 100 mg/kg; for signs of induced toxicity: single intraperitoneal injection
# Method: The maximum tolerated dose was determined for A15(4NO3) and I15(4NO3).
# Drugs were administered as a single intraperitoneal injection at 25, 50 and 100 mg/kg. Animals were observed daily for signs of induced toxicity and body weight determined 2 weeks post-dosing.
# poly[d(A-T)2] = settings: second binding mode, circular dichroism; cited from earlier work
# [7] = test system: A2780 cisplatin resistant cell line (A2780cis^R); experiment: in vitro cytotoxicity, sulforhodamine B growth inhibition assay; type: cell-based, human
# Method: as §1
# cell line A2780 = experiment: as above; type: cell-based, human; settings: 96 h exposure
# Method: as §1
# DNA = settings: intercalation into DNA, literature value [4]; cited from earlier work
compound,measurement,setting,value
"hydroxyethanethiolate-2,2':6',2""-terpyridine-platinum(II) [hydroxy-ethanethiolate complex]",binding association constants with ct-DNA,calf-thymus (ct)-DNA,83000 M⁻¹
"4,4'-vinylenedipyridine bis[2,2':6',2""-terpyridine platinum (II)] [A14 (4BF4)]",pIC50,[1],> 6.00
same,antitumour activity compared with cisplatin,cell line SKOV3 [2],more effective than cisplatin
[Cl-].[Cl-].[Pt+2].c1ccc(-c2cccc(-c3ccccn3)n2)nc1 [chloroplatinum complex],binding association constants with ct-DNA,calf-thymus (ct)-DNA,essentially the same binding constant
"Clc1cc2[n+]3c(c1)-c1cccc[n+]1[Pt-2]3([n+]1ccc(-c3cc[n+]([Pt-2]45[n+]6ccccc6-c6cc(Cl)cc([n+]64)-c4cccc[n+]45)cc3)cc1)[n+]1ccccc1-2.O=[N+]([O-])[O-].O=[N+]([O-])[O-].O=[N+]([O-])[O-].O=[N+]([O-])[O-] [I18, 4,4'-Dipyridine bis[(4'-chloro-2,2':6',2""-terpyridine)platinum(II)] tetranitrate]",pIC50,CH1 cell line,> 6.00
same,antitumour activity compared with cisplatin,cell line SKOV3 [3],more effective than cisplatin
same,pIC50,[4],> 6.00
"C(C#Cc1cc[n+]([Pt-2]23[n+]4ccccc4-c4cccc([n+]42)-c2cccc[n+]23)cc1)#Cc1cc[n+]([Pt-2]23[n+]4ccccc4-c4cccc([n+]42)-c2cccc[n+]23)cc1.O=[N+]([O-])[O-].O=[N+]([O-])[O-].O=[N+]([O-])[O-].O=[N+]([O-])[O-] [A15, 1,4-Bis(4-pyridyl)butadiyne bis[(2,2':6',2""-terpyridine)platinum(II)] tetranitrate]",pIC50,CH1 cell line,> 6.00
same,pIC50,[4],> 6.00
same,resistance factors (RF),[5],0.6
same,loss of body weight,[6],no loss of body weight
same,deaths,[6],no deaths
same,signs of induced toxicity,[6]; 100 mg/kg,no sign of toxicity or body weight loss
"O=[N+]([O-])[O-].O=[N+]([O-])[O-].O=[N+]([O-])[O-].O=[N+]([O-])[O-].O=[N+]([O-])[O-].O=[N+]([O-])[O-].[NH3+][Pt-2]([NH3+])([n+]1ccc(-c2cc[n+]([Pt-2]34[n+]5ccccc5-c5cc(Cl)cc([n+]53)-c3cccc[n+]34)cc2)cc1)[n+]1ccc(-c2cc[n+]([Pt-2]34[n+]5ccccc5-c5cc(Cl)cc([n+]53)-c3cccc[n+]34)cc2)cc1 [I20, trans-Diamminebis(4,4'-dipyridyl)platinum(II) bis[(4'-chloro-2,2':6',2""-terpyridine)platinum(II)] hexanitrate]",pIC50,CH1 cell line,> 6.00
same,pIC50,[4],> 6.00
same,resistance factors (RF),[5],0.8
"Cc1cc[n+]([Pt-2]23[n+]4ccccc4-c4cccc([n+]42)-c2cccc[n+]23)cc1.F[B-](F)(F)F.F[B-](F)(F)F [4-Picoline-2,2':6',2""-terpyridine-platinum(II) bis-tetrafluoroborate]",equilibrium binding constant,poly[d(A-T)2],about 1 x10^6 M^-1
"Clc1cc2[n+]3c(c1)-c1cccc[n+]1[Pt-2]3([n+]1ccc(C#CC#Cc3cc[n+]([Pt-2]45[n+]6ccccc6-c6cc(Cl)cc([n+]64)-c4cccc[n+]45)cc3)cc1)[n+]1ccccc1-2.O=[N+]([O-])[O-].O=[N+]([O-])[O-].O=[N+]([O-])[O-].O=[N+]([O-])[O-] [I15, 1,4-Bis(4-pyridyl)butadiyne bis[(4'-chloro-2,2':6'2""-terpyridine)platinum(II)] tetranitrate]",times more effective than cisplatin,[7]; A2780cis^R cell line,13 times
same,resistance factors (RF),[7]; A2780cis^R versus A2780,1.1
same,pIC50,cell line A2780,> 6.00
same,antitumour activity compared with cisplatin,cell line SKOV3 [3],more effective than cisplatin
same,loss of body weight,[6],no loss of body weight
same,deaths,[6],no deaths
same,signs of induced toxicity,[6]; 50 mg/kg,not at 50 mg/kg
same,signs of induced toxicity,[6]; 100 mg/kg,some indication of toxicity (mild ataxia/twitching)
F[B-](F)(F)F.[OH][Pt-2]12[n+]3ccccc3-c3cccc([n+]31)-c1cccc[n+]12 [hydroxy-platinum complex],binding constant,DNA,approximately 7 x 10^4 M^-1

# — patent EP1144423B1, “BIS-TERPYRIDINE-PLATINUM(II) COMPLEXES” (ISIS INNOVATION LIMITED, priority 1999, dated 2000)
